Results on 6 compounds are retold here after ChEMBL document CHEMBL1201862, “PubChem BioAssay data set” (2004).

The structures appear in SMILES notation.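 Cultured in 96-well plates, cells were exposed to test compound for 48 hours across five concentrations. GI50 is the concentration that inhibits growth by half.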 Calls of active or inactive are those of the source. Rule as the data show it: active = GI50 up to about 1.1 µM and inactive = higher.

Among the test systems are U-251; EKVX; HT-29; 786-0; NCI-H522; COLO 205; OVCAR-8; SNB-75; SF-539; Malme-3M; IGROV-1; OVCAR-3; A549; TK-10; NCI-H226.
Common to all, as to assay: inhibition of tumour cell growth, NCI panel, 48 h

For the compound `O=C(O)CCNS(=O)(=O)c1ccc(NC(=O)c2ccccc2)cc1`, the GI50 in the assay with U-251, in the assay with EKVX, in the assay on HT-29, in the assay on 786-0, with NCI-H522 and in the assay on COLO 205 was > 100 µM (inactive) in each case. For the same compound, the GI50 with OVCAR-8, with SNB-75, with SF-539, in the assay on Malme-3M, with IGROV-1 and in the assay with OVCAR-3 was > 100 µM (inactive) each time. Also, the GI50 with A549 and in the assay on TK-10 was > 100 µM (inactive) throughout.

As for `O=C1C2CC=CCC2C(=O)C12CCc1ccccc12` (centres undefined), the GI50 in the assay on U-251, with EKVX, in the assay with HT-29, in the assay on 786-0, with COLO 205 and in the assay with OVCAR-8 was > 100 µM (inactive) each time. The GI50 in the assay with SNB-75, in the assay on Malme-3M, in the assay on IGROV-1, with OVCAR-3, in the assay on A549 and in the assay on TK-10 was > 100 µM (inactive) throughout.

Turning to `CC(O)CNC(=O)C(C)Oc1ccc(OCC2CCCCC2)cc1` (centres undefined), the GI50 in the assay with U-251 is > 100 µM (inactive); in the assay on HT-29, > 100 µM (inactive); in the assay on 786-0 it was > 100 µM (inactive); in the assay with NCI-H226 it was 88.5 µM (inactive); in the assay on NCI-H522, > 100 µM (inactive); in the assay on OVCAR-8, > 100 µM (inactive). Further, the GI50 with SNB-75, with SF-539, with Malme-3M, with IGROV-1, in the assay on OVCAR-3 and in the assay with A549 was > 100 µM (inactive) in each case. Moreover, the GI50 in the assay on TK-10 is > 100 µM (inactive).

Take `COc1ccc(CNc2cnc3ccc(N)cc3n2)cc1`: the GI50 in the assay with EKVX is > 100 µM (inactive); in the assay on HT-29, > 100 µM (inactive); in the assay on 786-0 it was > 100 µM (inactive); with NCI-H226 it was > 100 µM (inactive); with NCI-H522, > 100 µM (inactive); in the assay on COLO 205, 0.064 µM (active). The GI50 with OVCAR-8 was > 100 µM (inactive); in the assay on SNB-75 it was 64.6 µM (inactive); in the assay with SF-539 it was > 100 µM (inactive); in the assay with Malme-3M, > 100 µM (inactive); with OVCAR-3, > 100 µM (inactive); in the assay with A549 it was > 100 µM (inactive). Also, the GI50 in the assay on TK-10 is > 100 µM (inactive).

Consider `CN(C)CCNC(=O)c1cccc2[nH]c(-c3cccnc3)nc12`, for which the GI50 in the assay on U-251 was 22.6 µM (inactive); in the assay with EKVX it was 22.8 µM (inactive); in the assay on HT-29, 27.4 µM (inactive); in the assay on 786-0 it was 22.9 µM (inactive); with NCI-H226 it was 22.4 µM (inactive); with COLO 205, 14.5 µM (inactive). The GI50 with OVCAR-8 was 17.5 µM (inactive); in the assay on SNB-75 it was 20.9 µM (inactive); with SF-539, 17.7 µM (inactive); in the assay with IGROV-1, 32.5 µM (inactive); in the assay with OVCAR-3, 20.8 µM (inactive); in the assay with A549 it was 19.8 µM (inactive). The GI50 with TK-10 is 19.8 µM (inactive).

Consider `O=C(NCCCC/N=c1/cccccc1NCCCCNC(=O)OCc1ccccc1)OCc1ccccc1`, for which the GI50 with U-251 was 16.1 µM (inactive); with EKVX, 22.9 µM (inactive); in the assay on HT-29, 6.04 µM (inactive); in the assay on 786-0, 16.4 µM (inactive); in the assay with NCI-H226, 16.4 µM (inactive); in the assay with NCI-H522, 17.2 µM (inactive). Also, the GI50 was 18.9 µM (inactive) in the assay on OVCAR-8; 18.7 µM (inactive) in the assay on SNB-75; 16.3 µM (inactive) in the assay with SF-539; 20.4 µM (inactive) in the assay with Malme-3M; 20.9 µM (inactive) with IGROV-1; 14.3 µM (inactive) in the assay on OVCAR-3. The GI50 with A549 was 26.5 µM (inactive); with TK-10, 19.2 µM (inactive).
